Experimental data published in patent US20170071901A1, “METHODS AND FORMULATIONS FOR INCREASING CHEMICAL STABILITY AND BIOLOGICAL ACTIVITY OF PHENOLIC COMPOUNDS” (priority 2015, published 2017).
“Also recorded” adds a separate entry of the source. Where two headings read alike, the source gives them in different places.

Columns and labels:
[1] = Curcumin stability in serum-free basal DMEM medium (HPLC); assay type: physicochemical
Text: (A1-A6) Representative microscope images of the treated cells. […] The results are mean ±SD, The samples designated with different letters are statistically different (P <0.05).

MC38 colon cancer cells [2] = assay: MC38 colon cancer cell proliferation (MTT assay); assay type: cell-based; settings: for inhibition at 10 µg/mL: Mus musculus; for effect of antioxidant on anti-proliferative effect of curcumin: MC38, curcumin 20 μM with antioxidant (3.9 μM each, FIG. 4D); for effect of antioxidant on anti-proliferative effect of curcumin / effect of antioxidant alone on MC38 cell proliferation: 24 h; for effect of antioxidant alone on MC38 cell proliferation: 3.9-62.5 μM antioxidant alone
Method: MC38 colon cancer cells (a gift from Prof. Ajit Varki at the University of California, San Diego) were plated into 96-well plates (6,000 cells per well) in 100 μL Dulbecco's Modified Eagle Medium (DMEM, purchased from Lonza, Allendale, N.J.) fortified with 10% Fetal Bovine Serum ([…], purchased from Coming Inc., Corning, N.Y.) and allowed to attach overnight. […] Nitteranon, V.; Chan, L. Y.; Parkin, K. L. Glutathione conjugation attenuates biological activities of 6-dehydroshogaol from ginger. Food Chem. 140:1-8; 2013, which is incorporated by reference herein in its entirety and for all purposes.

[3] = Plasma concentration of curcumin in mice after i.p. injection (HPLC); assay type: in vivo; settings: male, Swiss Webster, mouse, intraperitoneal, 20 mg/kg
Method: After 1 h, the mice were sacrificed to harvest the blood. The harvested blood was centrifuged at 1,200 g for 10 min at 4° C. to prepare the plasma fraction; then 200 μL plasma was immediately extracted with 400 μL ethyl acetate, the ethyl acetate extract was dried and reconstituted in methanol for HPLC analysis.
The mobile phase consisted methanol with 0.1% acetic acid (mobile phase B) and water with 0.1% acetic acid (mobile phase A).

MC38 colon cancer cells [4] = assay: Cell cycle progression and apoptosis in MC38 colon cancer cells; assay type: cell-based; settings: MC38, 24 hour treatment
[5] = tested on: LPS-induced NO production; assay: LPS-induced NO production in RAW 264.7 macrophage cells; assay type: cell-based
iNOS = assay: LPS-induced expression of iNOS in RAW 264.7 macrophage cells; assay type: cell-based
NF-kB signaling = assay: LPS-induced NF-kB signaling in RAW 264.7 macrophage cells; assay type: cell-based
[6] = for stability of the compound in phosphate buffer (HPLC): 25 μM of each compound, 0.1 M phosphate buffer pH 7.4
COX-2 = settings: RAW 264.7 macrophage cells
[7] = aqueous buffer, background statement; cited from earlier work
colorectal cancer = settings: human, cited from earlier work
[8] = tested on: advanced pancreatic cancer; settings: human, daily intake of 8 grams; cited from earlier work
physchem = settings: 0.1 M phosphate buffer, pH 7.4
[9] = tested on: Cadmium-induced hepatotoxicity; settings: rats; 200-400 mg/kg curcumin alone, 400 mg/kg ascorbate alone, or their combination; cited from earlier work
[10] = 25 μM curcumin, 0.1 M phosphate buffer, with or without 150 μM antioxidant, HPLC, % of time 0

Compound: COc1cc(/C=C/C(=O)CC(=O)/C=C/c2ccc(O)c(OC)c2)ccc1O [curcumin]
- stability of curcumin in basal medium [1]: rapidly degraded
- inhibition at 10 µg/mL (MC38 colon cancer cells [2]; MC-38, 24 h, read-out: inhibition of MC38 proliferation after 24 h treatment): ~60%
- inhibition at 10 µg/mL (MC38 colon cancer cells [2]; MC-38, read-out: inhibition of MC38 proliferation after 48-72 h treatment): > 95%
- concentration at 1 h [3]: 14.8 ± 16 nM
- G2 cell cycle arrest and apoptosis (MC38 colon cancer cells [4]): significantly induced G2 cell cycle arrest and apoptosis
- inhibition of LPS-induced NO production [5]: inhibited LPS-induced NO production in a dose-dependent manner
- inhibition of LPS-induced expression of iNOS (iNOS): dose-dependently inhibited
- inhibition of LPS-induced NF-kB signaling (IKK phosphorylation, IκBα degradation, nuclear translocation of p65) (NF-kB signaling): inhibited LPS-induced activation of NF-kB signaling
- degradation of curcumin in the buffer (HPLC) ([6]; 25 μM curcumin, 0.1 M phosphate buffer pH 7.4, after ~12-min incubation): 80-90%
- curcumin remaining in the phosphate buffer after 24-h incubation [6, 10]: ~5.9%
- curcumin remaining in the phosphate buffer after 48-h incubation [6, 10]: ~4.2%
- stability of the compound in phosphate buffer (HPLC) [6]: rapidly degraded
- inhibition of LPS-induced expression of inflammatory protein COX-2 (COX-2): inhibited
- half-life of curcumin at physiological pH [7]: several minutes
- effect in Phase IIa trial of colorectal cancer at 2 grams/day (colorectal cancer; 2 grams/day): no effect
- effect in Phase IIa trial of colorectal cancer at 4 grams/day (colorectal cancer; 4 grams/day): only inhibited aberrant crypt foci; also recorded: only reduced colorectal cancer risks
- reduction of aberrant crypt foci (colorectal cancer; daily intake of 4 grams of curcumin for a month): ~40%
- anti-cancer efficacy in advanced pancreatic cancer [8]: demonstrates anti-cancer efficacy in some patients
- half-life at 25 μM (physchem): < 10 min
- effect on Cadmium-induced hepatotoxicity [9]: no effect

Compound: O=C(O)/C=C/c1ccc(O)c(O)c1 [caffeic acid]
- effect of antioxidant on anti-proliferative effect of curcumin (MC38 colon cancer cells [2]): significantly increased anti-proliferative effects of curcumin

Compound: O=C([O-])CN(CCN(CC(=O)O)CC(=O)O)CC(=O)[O-].[Na+].[Na+] [EDTA, disodiumethylenediaminetetra acetic acid]
- protective effect of EDTA on curcumin stability (HPLC) ([6]; EDTA even at a dose as high as 200 μM, phosphate buffer): little protective effect

Compound: O=C1O[C@H]([C@@H](O)CO)C(O)=C1O [ascorbate]
- effect of antioxidant alone on MC38 cell proliferation (MC38 colon cancer cells [2]): no effect

Compound: Cc1c(C)c2c(c(C)c1O)CCC(C)(C(=O)O)O2 (stereo not drawn) [Trolox]
- effect of antioxidant alone on MC38 cell proliferation (MC38 colon cancer cells [2]): no effect
- effect of antioxidant on anti-proliferative effect of curcumin (MC38 colon cancer cells [2]): significantly increased anti-proliferative effects of curcumin

Compound: O=C(/C=C/c1ccc(O)c(O)c1)O[C@H](Cc1ccc(O)c(O)c1)C(=O)O [rosmarinic acid]
- effect of antioxidant on anti-proliferative effect of curcumin (MC38 colon cancer cells [2]): significantly increased anti-proliferative effects of curcumin

Compound: O=C(O)c1cc(O)c(O)c(O)c1 [gallic acid]
- effect of antioxidant on anti-proliferative effect of curcumin (MC38 colon cancer cells [2]): significantly increased anti-proliferative effects of curcumin
- effect of co-added antioxidant on curcumin stability (colorimetric assay, absorbance 420 nm) ([6]; 25 μM curcumin, phosphate buffer, dose of antioxidants 15 and 1.50 μM as printed): dramatically increased curcumin stability
- effect of co-added antioxidant on long-term stability of curcumin ([6]; 24-h and 48-h incubation, antioxidant 150 μM, 25 μM curcumin, phosphate buffer, HPLC): significantly increased long-term stability of curcumin

Compound: bicyclopentadione [BCP]
- inhibition of cancer cell proliferation in the tested dose range (MC38 colon cancer cells [2]; MC38, 10-40 μg/mL, 24-72 h treatment): completely inactive
- G2 cell cycle arrest and apoptosis (MC38 colon cancer cells [4]): neither TDP nor BCP had such effects
- inhibition of LPS-induced NO production [5]: no effect
- inhibition of LPS-induced expression of iNOS (iNOS): no effect
- inhibition of LPS-induced NF-kB signaling (IKK phosphorylation, IκBα degradation, nuclear translocation of p65) (NF-kB signaling): neither TDP nor BCP had such inhibitory effect

Compound: COc1ccc(C=CC(=O)CC(=O)C=Cc2ccc(OC)c(OC)c2)cc1OC [dimethoxy curcumin, 1,7-bis(3,4-dimethoxyphenyl)-1,6-heptadiene-3,5-dione]
- stability of the compound in phosphate buffer (HPLC) [6]: very stable

Compound: CC(C)(C)c1cc(O)ccc1O [TBHQ, tert-butylhydroquinone]
- effect of antioxidant on anti-proliferative effect of curcumin (MC38 colon cancer cells [2]): significantly increased anti-proliferative effects of curcumin
